Experiment [1] concerns CFU-MIX. Description: CFU-MIX cycling assay after in vivo injection into testosterone or 5FU treated mice. On the set-up: species or system mouse. How it is done: In order to test the ability of purified porcine hemoglobin chains to act in vivo, BDF1 mice were injected with testosterone propionate as described in Example 1. Twenty four hours later, mice received 500 ng of either pINPROL, porcine hemoglobin alpha chain (purified from peripheral red blood cells as in FIG. 21), porcine beta chain (purified from peripheral red blood cells as in FIG. 21) or the equivalent volume of carrier intravenously. Forty eight hours later the bone marrow from each mouse was harvested and the CFU-MIX assay conducted as described in Example 14.
To assess the stem cell inhibitory activity of peptide 43-55 in vivo, B6D2 F1 mice were pre-treated with testosterone propionate as described in Example 1 or with 5FU. Specifically, testosterone propionate (100 mg/kg body weight) was injected i.p. on Day 0 into mice. Alternatively, mice were injected on Day 0 with 5FU ([…] body weight).
(§1) 24 hours later (Day 1), varying doses of peptide 43-55 or vehicle were injected i.v. Bone marrow was harvested on Day 2 and the […] cycling assay conducted as in Example 14. Specifically, mice were sacrificed and single cell bone marrow suspensions prepared from the femurs. The cells were washed once and the concentration adjusted to 5×10^6 cells/ml in Fischer medium. For each test condition, one milliliter of cells was added to each of two polypropylene tubes. The tubes were incubated at 37° C. for 3 hours without (“Control”) or with (“Experimental”) the appropriate concentration of test substance. At the end of the incubation, 30 μg/ml of cytosine arabinoside (“Ara C” (Sigma)) was added to half of the tubes and the same volume of Fischer's medium was added to the others. The tubes were incubated for a further 1 hour at 37° C., after which they were placed on ice and washed twice with cold Fischer medium.
(§2) The cells were readjusted to 5×10^4-10^6/ml in Fischer's medium and 0.5 ml of cell suspension added to 5 ml of Methocult M3430 methylcellulose medium (Stem Cell Technologies, Vancouver, British Columbia). The mixture was vigorously mixed with a vortex and 1 ml was dispensed into each of five 35 mm dishes. The 35 mm dishes were in turn placed in a covered 150 mm dish with one open 35 mm dish containing sterile water. CFU-MIX colonies were counted with the use of an inverted microscope after 7 days of incubation at 37° C.
Differences in colony number between the tubes treated with medium versus the tubes treated with Ara C represent the percentage of cells in cycle under that condition according to the formula: […]

Experiment [2] relates to CFU-GEMM. Kind of experiment: CFU-GEMM cycling assay, human bone marrow cells. It is filed as cell-based. How it is done: To assess the bioactivity of recombinant p1-97, the CFU-GEMM cycling assay was used as in Example 18:
CD34^+ stem cells were obtained from Poietic Technologies (Gaithersburg, MD) after purification from human bone marrow by means of a CelUPro column. Cells were incubated for 48 hours with kit ligand and IL-3 and used in a CFU-GEMM cycling assay in Example 26.

The subject of experiment [3] is CFU-GEMM. Kind of experiment: CFU-GEMM cycling assay, human umbilical cord blood cells. It is filed as cell-based. How it is done: In order to investigate the ability of purified INPROL from porcine bone marrow to affect cycling on human progenitors, umbilical cord blood cells were obtained. Either the total mononuclear cell fraction obtained after separation on Ficoll or the CD34^+ fraction obtained after fractionation on anti-CD34 affinity columns (CellPro Inc.) was used. Cells were incubated for 48 hours in vitro in the presence of interleukin 3 (IL-3) and stem cell factor (SCF) (100 ng/ml each) in order to ensure that the early stem cells were in cycle. After this preincubation, cycling assays were conducted as described in Example 14 for the mouse except that CFU-GEMM (instead of CFU-MIX) were counted on Day 18 after plating.
The human cord blood CFU-GEMM cycling assay was conducted as in Example 19. Specifically, mononuclear cells were isolated from human umbilical cord blood cells and adjusted to 24×10^4 cells/ml in IMDM tissue culture medium supplemented with 10% FBS, 100 ng/ml kit ligand and 100 ng/ml human IL-3. The cells were incubated for 48 hours at 37° C.
After incubation, cells were washed and resuspended in serun-free NDM at a concentration of 10^6 cells/ml. One ml of cells was added to each of two polypropylene tubes per condition and the cycling assay conducted as in Example 24 for mouse bone marrow. After the Ara C incubation cells were washed with cold NDM and adjusted to 10,000 to 20,000 cells per 0.5 ml IMDM and mixed with 5 ml Methocult H4433 (Stem Cell Technologies). Alternatively, Methocult H4435 methylcellulose medium (Stem Cell Technologies) was used in which case the cell concentration was adjusted to 2500-5000 cells per 0.5 ml IMDM. The cells were plated as in Example 24 and CFU-GEMM colonies scored on days 14-18.

Experiment [4] has as its system CFU-MIX. Description: CFU-MIX cycling assay in vitro (Ara C kill). Type of experiment: cell-based, mouse. Here is the method:
A similar assay can be performed in vitro, using the cycling status of CFU-MIX instead of CFU-S. The assay is performed as described above for the CFU-S assay except that cytosine arabinoside (Ara C, 30 micrograms/ml) is used as the cycle-specific toxic agent instead of high dose tritiated thymidine (see B. I. Lord in Haemopoiesis—A Practical Approach, N. G. Testa and G. Molineux (Eds.), IRL Press 1993; Pragnell et al. in Culture of Hematopoietic Cells, R. I. Freshney, I. B. Pragnell and M. G. Freshney (Eds.), Wiley Liss 1994) and a mouse strain with high endogenous cycling rates (Balb/c) is used instead of testosterone-treated BDFI mice.
as §1, §2
Differences in colony number between the tubes treated with medium versus the tubes treated with Ara C represent the percentage of cells in cycle under that condition according to the formula:
a=Number of CFU-MIX from tube incubated with medium alone
b=Number of CFU-MIX from tube incubated with Ara C

In experiment [5] the test system is CFU-MIX. Description: Stimulation of cycling of quiescent murine stem cells, CFU-MIX cycling assay in vitro. Type of experiment: cell-based, mouse. Here is the method: Microgram per milliliter doses of hemoglobin chains, myoglobin and peptides were assayed for stimulation of quiescent stem cells. Bone marrow was obtained from untreated B6D2F1 tested in the CFU-MIX cycling assay as in Example 24. Stem cells isolated from untreated B6D2F1 mice are normally slowly cycling unless stimulated (e.g. by testosterone propionate (cf. Example 1) or chemotherapy such as 5FU (cf. Example 4)) to enter into cycle.

[6] abbreviates: Table 33, CD34+ stem cells from human bone marrow, concentration printed only as (ng/ml).
Setting [7] is: Table 32, cord blood mononuclear cells, 100 ng/ml.

No end group written: not given here.

Take “FPHFDLSHGSAQV [Peptide 43-55, amino acids 43-55 of human alpha hemoglobin]”: the “% Kill” value worked out at 0% in experiment [1] (Table 22, testosterone-pretreated animals, 0.5 ng i.v. per 20 gram mouse); 3% in experiment [1] (Table 23, 5FU-pretreated animals, 0.5 ng i.v. per 20 gram mouse); 0% in experiment [2] (setting [6]); 20% in experiment [3] (Table 32, cord blood mononuclear cells, 1 ng/ml); 12% in experiment [3] (Table 32, cord blood mononuclear cells, 10 ng); 5% in experiment [3] (setting [7]). Further, the “% Kill” value is on record as 11% in experiment [4] (Table 17, 1 ng/ml); 18% in experiment [4] (Table 17, 10 ng/ml); 2% in experiment [4] (Table 17, 100 ng/ml); 5% in experiment [4] (Table 18, 100 ng/ml); 8% in experiment [4] (Table 24, 1 ng/ml); 8% in experiment [4] (Table 27, Balb/c bone marrow, 1 ng/ml). The “% Kill” value was determined as 6% in experiment [4] (Table 28, 10 ng/ml, alone); 8% in experiment [4] (Table 31, 10 ng/ml, alone); 26% in experiment [5] (Table 40, untreated B6D2F1 bone marrow, 10 μg/ml).

With “Human alpha chain: purified, non-recombinant human alpha hemoglobin chain isolated by reversed-phase HPLC”, the “% Kill” value in experiment [1] (Table 14, testosterone-treated BDF1 mice, 500 ng/mouse) was −22%; in experiment [1] (Table 22, testosterone-pretreated animals, 500 ng i.v. per 20 gram mouse) it was 13%; in experiment [1] (Table 23, 5FU-pretreated animals, 500 ng i.v. per 20 gram mouse), 0%; in experiment [2] (Table 21, human bone marrow mononuclear cells, 100 ng/ml), 11%; in experiment [2] (setting [6]), 0%; in experiment [3] (Table 16, cord blood mononuclear cells, 100 ng/ml), −23%. Also, the “% Kill” value in experiment [3] (setting [7]) is reported as 0%; in experiment [4] (Table 11, bone marrow from Balb/c mice, 100 ng/ml), −1%; in experiment [4] (Table 13, bone marrow from Balb/c mice, 100 ng/ml), 19%; in experiment [4] (Table 20, Balb/c bone marrow, 100 ng/ml), 12%; in experiment [4] (Table 25, Balb/c bone marrow, 100 ng/ml) it was 0%; in experiment [4] (Table 28, 100 ng/ml, alone), 0%. In addition, the “% Kill” value in experiment [4] (Table 30, 100 ng/ml) worked out at 0%; in experiment [4] (Table 31, 100 ng/ml, alone), 0%; in experiment [5] (Table 37, untreated B6D2F1 bone marrow, 1 μg/ml), 0%; in experiment [5] (Table 37, untreated B6D2F1 bone marrow, 10 μg/ml) it was 24%; in experiment [5] (Table 37, untreated B6D2F1 bone marrow, 100 μg/ml), 40%; in experiment [5] (Table 39, untreated B6D2F1 bone marrow, 100 μg/ml), 41%. In addition, in experiment [5] (Table 40, untreated B6D2F1 bone marrow, 100 μg/ml), the “% Kill” value was determined as 30%.

For the origin of these results see patent US6784155B1, “Inhibitor and stimulator of stem cell proliferation and uses thereof” (Wellstat Therapeutics Corporation, priority 1996, dated 2004).
